Test results as given in the NIST ThermoML archive (doi:10.1021/je300086w).

Legend:
[1] = refractive index (Na D-line) (dimensionless); conditions: 101.33 kPa, Liquid, Standard Abbe refractometry
[2] = for viscosity / mass density: 101.33 kPa, Liquid; for mass density: Vibrating tube method; for Normal melting temperature: Crystal, AC calorimetry

CCCCCC(=O)[O-].C[N+](C)(C)CCO [2-hydroxy-N,N,N-trimethylethanaminium hexanoate]
Conditions | mass density, [2] [kg/m3] | refractive index, [1] | viscosity, [2] [mPa·s]
293.15 K | 1018.8 | 1.4726 | 929.2
298.15 K | 1015.7 | 1.4709 | 710.7
303.15 K | 1012.5 | 1.4692 | 530.4
308.15 K | 1009.8 | 1.4675 | 400.3
313.15 K | 1006.8 | 1.4658 | 298
318.15 K | 1003.9 | 1.464 | 225.9
323.15 K | 1001.3 | 1.4624 | 175.3
328.15 K | 998.4 | 1.4607 | 140.3
333.15 K | 995.5 | 1.459 | 110.9
338.15 K | 992.6 | – | 89.7
343.15 K | 989.7 | – | 73.7
348.15 K | 986.8 | – | 60.9
353.15 K | 984 | – | 51

CC(C)(C)C(=O)[O-].C[N+](C)(C)CCO [choline pivalate]
Conditions | Normal melting temperature [°C]
[2] | 96.0

CCCC(=O)[O-].C[N+](C)(C)CCO [choline butanoate]
Conditions | mass density, [2] [kg/m3] | refractive index, [1] | viscosity, [2] [mPa·s]
293.15 K | 1049.5 | 1.4716 | 833.1
298.15 K | 1046.5 | 1.47 | 630.6
303.15 K | 1043.4 | 1.4683 | 459.3
308.15 K | 1040.5 | 1.4667 | 344.2
313.15 K | 1037.6 | 1.465 | 254
318.15 K | 1034.6 | 1.4633 | 193.8
323.15 K | 1031.9 | 1.4617 | 150.2
328.15 K | 1029 | 1.46 | 118.2
333.15 K | 1026.2 | 1.4585 | 94.3
338.15 K | 1023.4 | – | 76.1
343.15 K | 1020.5 | – | 62.2
348.15 K | 1017.2 | – | 51.4
353.15 K | 1014.5 | – | 42.9

CC(=O)OCC[N+](C)(C)C [2-acetoxy-N,N,N-trimethylethanaminium]
Conditions | Normal melting temperature [°C]
[2] | 72.0

CCC(=O)[O-].C[N+](C)(C)CCO [cholinium propanoate]
Conditions | mass density, [2] [kg/m3] | refractive index, [1] | viscosity, [2] [mPa·s]
293.15 K | 1074.6 | 1.4705 | 395.8
298.15 K | 1071.5 | 1.4686 | 290.2
303.15 K | 1068.6 | 1.4668 | 215.6
308.15 K | 1065.7 | 1.465 | 163.2
313.15 K | 1062.8 | 1.4631 | 125.8
318.15 K | 1060 | 1.4611 | 98.5
323.15 K | 1057.2 | 1.4592 | 78.3
328.15 K | 1054.3 | 1.4573 | 63
333.15 K | 1051.4 | 1.4555 | 51.4
338.15 K | 1048.6 | – | 42.4
343.15 K | 1045.8 | – | 35.4
348.15 K | 1042.9 | – | 29.8
353.15 K | 1040.1 | – | 25.4
